Where “and” joins values, the source holds several entries; their conditions need not be identical. Equal values may be shown once.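 The compound was tested at five concentrations on cells cultured in 96-well plates, with a 48-hour exposure period. Abbreviation: GI50, concentration required for 50% inhibition of growth. TGI marks complete inhibition of growth.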
Columns and labels:
Experiment in all cases: NCI anticancer screen, dose series, 48 h
[1] = tested on: MDA-MB-231 breast
[2] = tested on: TK-10 renal
[3] = tested on: OVCAR-3 ovarian
[4] = tested on: 786-0 renal
[5] = tested on: T-47D breast
[6] = tested on: OVCAR-4 ovarian
[7] = tested on: EKVX NSCLC
[8] = tested on: PC-3 prostate
[9] = tested on: SR leukemia
[10] = tested on: SK-MEL-28 melanoma

Compound | TGI [1] [µM] | TGI [2] [µM] | TGI [3] | TGI [4] [µM] | TGI [5] [µM] | TGI [6] [µM] | TGI [7] [µM] | TGI [8] [µM] | TGI [9] [µM] | TGI [10] | GI50 [3] [µM] | GI50 [6] [µM] | GI50 [7] [µM] | GI50 [10] [µM]
O=C(C(Cl)=C(N1CCCCC1)N1CCCCC1)C(Cl)Cl | > 100 | > 100 | > 100 µM | > 100 | > 100 | > 100 | > 100 | > 100 | > 100 | > 100 µM |  |  |  | 
CC(=O)OC(C)(C)CCC(=O)[C@](C)(O)[C@H]1[C@H](O)C[C@@]2(C)[C@@H]3CC=C4C(C)=C(OC5OC(CO)C(O)C(O)C5O)C(=O)C[C@@H]4[C@]3(C)C(=O)C[C@]12C (some centres undefined) | > 100 | > 100 | > 100 µM | > 100 | > 100 | > 100 | > 100 | > 100 | > 100 | > 100 µM |  |  |  | 
Cc1ccc(S(=O)(=O)N/N=C2/CCC(C(C)(C)C)CC2Br)cc1 (centres undefined) | > 100 | > 100 | 48.9 µM | 99.4 | > 100 | 33.6 | > 100 | 86.5 | > 100 | 54.5 µM |  |  |  | 
COc1c2ccsc2c(OC)c2ccsc12 | > 100 | > 100 | > 100 µM | > 100 | > 100 | > 100 | > 100 | > 100 | > 100 | > 100 µM |  |  |  | 
COCC12CCC(OC)C34C5CC6(O)C(OC)CC(OC(C)=O)(C5C6OC(=O)c5ccccc5)C(C(OC)C13)C4N(C)C2 (centres undefined) | > 100 | > 100 | > 100 µM | > 100 | > 100 | > 100 | > 100 | > 100 | > 100 | > 100 µM |  |  |  | 
COc1ccc(C2SCC(=O)N2NC(=O)C(C)Oc2ccccc2C)cc1 (centres undefined) | > 100 | > 100 | > 100 µM | > 100 | > 100 | > 100 | > 100 | > 100 | > 100 | > 100 µM |  |  |  | 
Cc1c(O)c(OC2OC(CO)C(O)C(O)C2O)cc2c1C=C[C@@H]1[C@@]2(C)C(=O)C[C@]2(C)[C@@H]([C@@](C)(O)C(=O)CCC(C)(C)O)[C@H](O)C[C@@]12C (some centres undefined) | 47.7 | 33.4 | 46.9 µM | 74.3 | 46.3 | > 100 | 91.4 | 44.5 | > 100 | 43.1 µM |  |  |  | 
CC12ON(P(=O)(c3ccccc3)c3ccccc3)C(C)(c3ccccc31)c1ccccc12 | > 100 | > 100 | > 100 µM | > 100 | > 100 | > 100 | > 100 | > 100 | > 100 | > 100 µM |  |  |  | 
CCOC(=O)CCC(NC(=O)Cc1ccc(Oc2nc3ccccc3nc2-c2ccccc2)cc1)C(=O)OCC (centres undefined) | > 100 | > 100 | > 100 µM | > 100 | 99.7 | > 100 | > 100 | > 100 | > 100 | > 100 µM |  |  |  | 
CC(=O)N(C(C)=O)n1c(Cc2ccc(C)cc2)nn(C(C)=O)c1=O | > 100 | > 100 | > 100 µM | > 100 | > 100 | > 100 | > 100 | > 100 | > 100 | > 100 µM |  |  |  | 
CCN(CC)CCOC(=O)Cc1cccc2c(=O)cc(-c3ccccc3)oc12 | 57.2 | 52.5 | 62.5 µM and > 76.3 µM | 62.5 | 50.2 | 62.5 | 62.5 | 62.5 | 37.9 | 62.5 µM and > 237 µM | > 43.4 | 18.3 | 25.2 | 115
COc1ccc2c(c1)CCN1CCCc3ccccc3C21 (centres undefined) | > 100 | > 100 | > 100 µM | > 100 | > 100 | > 100 | > 100 | > 100 | > 100 | > 100 µM |  |  |  | 
CCCCCCCCCCCCCCCCCC(=O)Nc1ccn(C2CCC(COP(=O)(O)O)O2)c(=O)n1 (centres undefined) | > 100 | > 100 | > 100 µM | > 100 | > 100 | > 100 | > 100 | > 100 | > 100 | > 100 µM |  |  |  | 
COC1(c2cccs2)c2ccccc2C(OC)(c2cccs2)c2ccccc21 (centres undefined) | > 100 | > 100 | > 100 µM | > 100 | > 100 | > 100 | > 100 | > 100 | > 100 | > 100 µM |  |  |  | 
O=[N+]([O-])c1cccc(Cl)c1Oc1ccc(S(=O)(=O)/N=C(\NO)Nc2ccc(Cl)cc2)cc1 | 47.6 | 30.4 | 22.6 µM | 25.7 | 29.3 | 26.3 | 26.2 | 24.2 | 21.1 | 34.7 µM |  |  |  | 
CCCN(CCC)C1CCc2c(ccc3cc[nH]c23)C1 (centres undefined) | > 100 | > 100 | > 100 µM | > 100 | > 100 | > 100 | > 100 | > 100 | 73.3 | 89.4 µM |  |  |  | 
COC1=C2C=[N+](C)C3C(=C2C=CC1OC)Cc1cc2c(cc13)OCO2 (centres undefined) | 27.8 | 32.4 | 13.7 µM | 29.6 | 18.8 | 22.3 | 35.6 | 39.3 | 42 | 47.4 µM |  |  |  | 
COC12C=CC(C=C1C#N)CC2 (centres undefined) (tested in a mixture with another compound) | > 100 | > 100 | > 100 µM | > 100 | > 100 | > 100 | > 100 | > 100 | > 100 | > 100 µM |  |  |  | 

— PubChem BioAssay (NCI)
